Where a chain is given by its changes, count along the chain named. Active and inactive are the calls of the source. The calls are words filed in the database; no cut-off is given here.
Columns and labels:
[1] = target: T1, Glutathione reductase (Rattus norvegicus) (UniProt P70619); experiment: Inhibition of NADPH-reduced rat glutathione reductase at 1 to 5 uM incubated for 1 hr in presence of NADPH and GSSG
T1 sequence (whole entry): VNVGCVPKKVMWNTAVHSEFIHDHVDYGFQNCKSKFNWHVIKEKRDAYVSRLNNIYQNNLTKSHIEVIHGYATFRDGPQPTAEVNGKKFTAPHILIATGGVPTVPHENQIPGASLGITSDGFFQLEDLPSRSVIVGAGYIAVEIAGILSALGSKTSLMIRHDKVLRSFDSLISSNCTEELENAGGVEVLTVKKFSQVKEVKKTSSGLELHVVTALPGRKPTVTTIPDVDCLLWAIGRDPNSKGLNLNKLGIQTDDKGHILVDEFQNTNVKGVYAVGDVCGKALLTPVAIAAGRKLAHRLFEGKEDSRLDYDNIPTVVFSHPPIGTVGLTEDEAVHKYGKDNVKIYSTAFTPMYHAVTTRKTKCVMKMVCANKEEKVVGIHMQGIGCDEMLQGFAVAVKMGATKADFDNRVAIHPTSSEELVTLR

HepG2 = experiment: Cytotoxicity in human HepG2 cells assessed as reduction in cell viability at 1 to 5 uM incubated for 48 hrs by MTT assay; format: functional, cell-based
HL-60 [2] = experiment: Cytotoxicity in human HL60 cells assessed as cell viability at 20 uM incubated for 48 hrs by MTT assay; format: functional; conditions: HL-60, 48 h, read-out: Activity
HL-60 [3] = experiment: Induction of apoptosis in human HL60 cells assessed as increase in condensed and fluorescent nuclei at 1 to 5 uM incubated for 24 hrs by Hoechst 33342 staining based phase contrast and fluorescence microscopy; format: functional, cell-based
HL-60 [4] = experiment: Induction of ROS production in human HL60 cells at 1 to 5 uM incubated for 1 hr by DCFH-DA staining based fluorescence assay; format: functional, cell-based
HL-60 [5] = experiment: Cytotoxicity in human HL60 cells assessed as reduction in cell viability incubated for 48 hrs by trypan blue dye exclusion assay; format: functional, cell-based; conditions: HL-60, 48 h
HL-60 [6] = experiment: Cytotoxicity in human HL60 cells assessed as cell viability at 1 to 5 uM incubated for 48 hrs after 24 hrs pre-treatment with 50 uM BSO before compound addition by MTT assay; format: functional, cell-based
HeLa [7] = experiment: Cytotoxicity in human HeLa cells assessed as reduction in cell viability at 1 to 5 uM incubated for 48 hrs by MTT assay; format: functional, cell-based
HL-60 [8] = experiment: Reduction in GSH/GSSG ratio in human HL60 cells at 1 to 5 uM incubated for 24 hrs by enzymatic recycling method; format: functional, cell-based
HeLa [9] = experiment: Cytotoxicity in human HeLa cells transfected with non targetting vector assessed as reduction in cell viability at 1 to 5 uM incubated for 48 hrs by MTT assay; format: functional, cell-based
HL-60 [10] = experiment: Cytotoxicity in human HL60 cells assessed as cell viability at 1 to 5 uM incubated for 24 hrs after pre-treatment with […] before compound addition by MTT assay; format: functional, cell-based
[11] = target: T2, Thioredoxin reductase 1, cytoplasmic (Rattus norvegicus, UniProt O89049); experiment: (§1) Inhibition of NADPH-reduced rat TrxR1 assessed as suppression of DTNB reduction incubated for 1 hr
T2 sequence (O89049 whole entry): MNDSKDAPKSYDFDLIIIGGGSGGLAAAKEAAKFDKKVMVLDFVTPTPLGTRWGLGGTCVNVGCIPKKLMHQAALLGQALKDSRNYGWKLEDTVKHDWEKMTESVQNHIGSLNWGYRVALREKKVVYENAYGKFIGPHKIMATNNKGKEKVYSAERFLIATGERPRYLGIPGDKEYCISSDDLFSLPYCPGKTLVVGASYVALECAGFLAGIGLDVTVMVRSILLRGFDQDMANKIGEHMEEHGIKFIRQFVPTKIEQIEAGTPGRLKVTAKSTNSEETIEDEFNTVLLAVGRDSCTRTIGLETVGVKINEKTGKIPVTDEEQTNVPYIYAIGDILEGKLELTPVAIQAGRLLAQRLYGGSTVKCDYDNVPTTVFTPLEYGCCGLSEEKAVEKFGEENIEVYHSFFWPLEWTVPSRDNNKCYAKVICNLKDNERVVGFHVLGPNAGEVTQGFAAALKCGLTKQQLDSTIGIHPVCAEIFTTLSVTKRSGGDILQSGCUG

[12] = target: T3, Thioredoxin reductase 1, cytoplasmic (Rattus norvegicus) (UniProt O89049); experiment: as §1
T3 sequence (whole entry): T2 sequence (O89049 whole entry)

HL-60 [13] = experiment: Cytotoxicity in human HL60 cells assessed as cell viability at 1 to 5 uM incubated for 24 hrs by MTT assay; format: functional, cell-based
HEK-293T [14] = experiment: Cytotoxicity in HEK293T cells overexpressing TrxR1 (unknown origin) cells assessed as reduction in cell viability at 1 to 5 uM incubated for 48 hrs by MTT assay; format: functional, cell-based; conditions: Homo sapiens
[15] = target: T3, Thioredoxin reductase 1, cytoplasmic (Rattus norvegicus); experiment: Irreversible inhibition of NADPH-reduced rat TrxR1 assessed as suppression of DTNB reduction incubated for 1 hr followed by compound removal from incubation mixture by column desalting
HL-60 [16] = experiment: Induction of apoptosis in human HL60 cells assessed as increase in caspase-3 activity at 5 uM incubated for 24 hrs using Ac-DEVD-pNA substrate by colorimetric assay; format: functional, cell-based
HEK-293T [17] = experiment: Cytotoxicity in human HEK293T cells assessed as reduction in cell viability at 1 to 5 uM incubated for 48 hrs by MTT assay; format: cell-based
HL-60 [18] = experiment: Induction of apoptosis in human HL60 cells 1 uM incubated for 24 hrs by Annexin V/propidium iodide staining based flow cytometry; format: functional
HL-60 [19] = experiment: Induction of apoptosis in human HL60 cells 0.5 to 5 uM incubated for 24 hrs in presence of NAC by Annexin V/propidium iodide staining based flow cytometry; format: functional, cell-based
HeLa [20] = experiment: Cytotoxicity in human HeLa cells transfected with shTrxR1 assessed as reduction in cell viability at 1 to 5 uM incubated for 48 hrs by MTT assay; format: functional, cell-based
HL-60 [21] = experiment: Cytotoxicity in human HL60 cells assessed as reduction in cell viability incubated for 72 hrs by MTT assay; format: functional, cell-based; conditions: HL-60, 72 h
[22] = tested on: T4, Thioredoxin reductase 1, cytoplasmic (Rattus norvegicus), O89049 [U498C]; experiment: Inhibition of NADPH-reduced rat TrxR1 U498C mutant assessed as suppression of DTNB reduction at 1 to 5 uM incubated for 1 hr
T4 sequence (whole entry): T2 sequence (O89049 whole entry) with U498C

[23] = target: T5, Thioredoxin reductase 1, cytoplasmic (Homo sapiens, UniProt Q16881); experiment: Inhibition of TrxR1 in human HL60 cells incubated for 24 hrs by endpoint insulin reduction assay; format: cell-based
T5 sequence (Q16881 whole entry): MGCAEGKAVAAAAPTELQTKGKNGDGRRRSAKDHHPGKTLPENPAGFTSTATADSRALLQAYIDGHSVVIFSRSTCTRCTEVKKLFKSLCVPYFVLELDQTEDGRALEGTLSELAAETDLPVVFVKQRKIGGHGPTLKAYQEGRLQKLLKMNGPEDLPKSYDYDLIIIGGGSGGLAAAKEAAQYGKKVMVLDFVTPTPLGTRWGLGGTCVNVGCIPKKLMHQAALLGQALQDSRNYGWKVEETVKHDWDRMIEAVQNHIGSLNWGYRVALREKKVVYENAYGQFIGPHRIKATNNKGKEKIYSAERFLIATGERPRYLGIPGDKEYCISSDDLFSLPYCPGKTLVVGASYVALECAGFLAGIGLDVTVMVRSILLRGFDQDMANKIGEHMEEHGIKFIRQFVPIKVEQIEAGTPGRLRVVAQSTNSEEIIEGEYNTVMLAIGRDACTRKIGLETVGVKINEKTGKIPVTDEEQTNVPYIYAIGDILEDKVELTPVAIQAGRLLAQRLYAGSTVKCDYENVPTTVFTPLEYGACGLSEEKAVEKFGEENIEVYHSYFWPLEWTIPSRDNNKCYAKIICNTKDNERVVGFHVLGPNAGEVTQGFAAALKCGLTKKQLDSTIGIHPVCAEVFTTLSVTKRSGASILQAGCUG

HEK-293T [24] = experiment: Cytotoxicity in HEK293T cells transfected with pIRESneo construct assessed as reduction in cell viability at 1 to 5 uM incubated for 48 hrs by MTT assay; format: functional, cell-based; conditions: Homo sapiens
HL-60 [25] = experiment: Induction of apoptosis in human HL60 cells 5 uM incubated for 24 hrs by Annexin V/propidium iodide staining based flow cytometry; format: functional
HL-60 [26] = experiment: Cytotoxicity in human HL60 cells assessed as induction of cell death at 1 uM incubated for 24 hrs by MTT assay; format: functional
HL-60 [27] = experiment: Induction of apoptosis in human HL60 cells assessed as increase in caspase-3 activity at 1 to 3 uM incubated for 24 hrs using Ac-DEVD-pNA substrate by colorimetric assay; format: functional, cell-based
HL-60 [28] = experiment: Reduction in intracellular thiols in human HL60 cells at 1 to 5 uM incubated for 24 hrs by DTNB titration method; format: functional, cell-based
L02 = experiment: Cytotoxicity in human L02 cells assessed as reduction in cell viability at 1 to 5 uM incubated for 48 hrs by MTT assay; format: cell-based; conditions: l02, 48 h
HL-60 [29] = experiment: Potentiation of H2O2-induced cytotoxicity in human HL60 cells assessed as induction of cell death at 1 uM incubated for 24 hrs by MTT assay (reference value: 4%); format: functional
HL-60 [30] = experiment: Induction of apoptosis in human HL60 cells 0.5 uM incubated for 24 hrs by Annexin V/propidium iodide staining based flow cytometry; format: functional
HL-60 [31] = experiment: Induction of ROS production in human HL60 cells at 1 to 5 uM incubated for 1 hr by DHE staining based fluorescence assay; format: functional, cell-based
HL-60 [32] = experiment: Cytotoxicity in human HL60 cells assessed as reduction in cell viability incubated for 48 hrs by MTT assay; format: functional, cell-based; conditions: HL-60, 48 h
[33] = target: T6, Thioredoxin reductase 1, cytoplasmic (Homo sapiens) (UniProt Q16881); experiment: Inhibition of TrxR1 in human HL60 cells incubated for 12 hrs by TRFS-green dye based fluorescence assay; format: cell-based
T6 sequence (whole entry): T5 sequence (Q16881 whole entry)

HL-60 [34] = experiment: Effect on TrxR1 protein expression in human HL60 cells at 1 to 5 uM incubated for 24 hrs by Western blot; format: ADME, cell-based; conditions: hl-60, 24 h
HL-60 [35] = experiment: Induction of necrosis in human HL60 cells 5 uM incubated for 24 hrs by Annexin V/propidium iodide staining based flow cytometry; format: functional, cell-based
HL-60 [36] = experiment: Induction of apoptosis in human HL60 cells 3 uM incubated for 24 hrs by Annexin V/propidium iodide staining based flow cytometry; format: functional
A549 = experiment: Cytotoxicity in human A549 cells assessed as reduction in cell viability at 1 to 5 uM incubated for 48 hrs by MTT assay; format: functional, cell-based
HL-60 [37] = experiment: Potentiation of H2O2-induced cytotoxicity in human HL60 cells assessed as induction of cell death at 3 uM incubated for 24 hrs by MTT assay; format: functional, cell-based

## CC1=CC(=O)c2c(O)ccc(O)c2C1=O
[1]
  inhibition: inactive
HepG2
  Activity: Active
HL-60 [2]
  viability at 20 µM: 0%
HL-60 [3]
  Activity: Active
HL-60 [4]
  Activity: Active
HL-60 [5]
  IC50: 860 nM
HL-60 [6]
  Activity: Active
HeLa [7]
  Activity: Active
HL-60 [8]
  Activity: Dose-dependent effect
HeLa [9]
  Activity: Active
HL-60 [10]
  Activity: inactive
[11]
  IC50: 700 nM
[12]
  inhibition: Dose-dependent effect
HL-60 [13]
  Activity: Active
HEK-293T [14]
  Activity: inactive
[15]
  inhibition: Active
HL-60 [16]
  Activity: inactive
HEK-293T [17]
  Activity: Non-Toxic
HL-60 [18]
  Activity: 23%
HL-60 [19]
  Activity: inactive
HeLa [20]
  Activity: Active
HL-60 [21]
  IC50: 640 nM
[22]
  inhibition: inactive
[23]
  IC50: 2400 nM
HEK-293T [24]
  Activity: Active
HL-60 [25]
  Activity: 56%
HL-60 [26]
  Activity: 27%
HL-60 [27]
  Activity: Active
HL-60 [28]
  Activity: Active
L02
  Activity: Non-Toxic
HL-60 [29]
  Activity: >43%
HL-60 [30]
  Activity: 10%
HL-60 [31]
  Activity: Dose-dependent effect
HL-60 [32]
  IC50: 720 nM
[33]
  inhibition: Dose-dependent effect
HL-60 [34]
  Activity: Non-Toxic
HL-60 [35]
  Activity: Active
HL-60 [36]
  Activity: 42%
A549
  Activity: Active
HL-60 [37]
  Activity: Active

## O=C1C=C(NCc2ccccc2)C(=O)c2c(O)ccc(O)c21
HL-60 [2]
  viability at 20 µM: 54.6%

## O=C1C=C(N2CCCCC2)C(=O)c2c(O)ccc(O)c21
HL-60 [2]
  viability at 20 µM: 54.9%

## CCCCNC1=CC(=O)c2c(O)ccc(O)c2C1=O
HL-60 [2]
  viability at 20 µM: 59.2%

## CCCCCCCCNC1=CC(=O)c2c(O)ccc(O)c2C1=O
HL-60 [2]
  viability at 20 µM: 61.1%

## O=C1C=C(N2CCOCC2)C(=O)c2c(O)ccc(O)c21
HL-60 [2]
  viability at 20 µM: 50.1%

## CCCNC1=CC(=O)c2c(O)ccc(O)c2C1=O
HL-60 [2]
  viability at 20 µM: 59.4%

## CNC1=CC(=O)c2c(O)ccc(O)c2C1=O
HL-60 [2]
  viability at 20 µM: 63%

From ChEMBL document CHEMBL4130472, “Synthesis of naphthazarin derivatives and identification of novel thioredoxin reductase inhibitor as potential anticancer agent” (Eur J Med Chem, 2017)
